Data reported in patent US10544156B2, “Hemi-synthetic trilobine analogs for use as a drug” (PIERRE FABRE MEDICAMENT, priority 2015, dated 2020).
Read-outs that look alike come from different tables or passages of the source.

Experiments:
[1] = target: T1, His-DNMT1 (182 kDa, human) (Homo sapiens, UniProt P26358); assay: hDNMT1 assay ([methyl-3H] SAM Flashplate); format: biochemical; conditions: for EC50: read-out: EC50 (μM), hDNMT 1 inhibition; for inhibition at 10 µM: read-out: hDNMT 1 inhibition, Inhibition (%) 10 μM; for inhibition at 32 µM: read-out: hDNMT 1 inhibition, Inhibition (%) 32 μM
T1 construct: His; made in house
T1 sequence (P26358 whole entry): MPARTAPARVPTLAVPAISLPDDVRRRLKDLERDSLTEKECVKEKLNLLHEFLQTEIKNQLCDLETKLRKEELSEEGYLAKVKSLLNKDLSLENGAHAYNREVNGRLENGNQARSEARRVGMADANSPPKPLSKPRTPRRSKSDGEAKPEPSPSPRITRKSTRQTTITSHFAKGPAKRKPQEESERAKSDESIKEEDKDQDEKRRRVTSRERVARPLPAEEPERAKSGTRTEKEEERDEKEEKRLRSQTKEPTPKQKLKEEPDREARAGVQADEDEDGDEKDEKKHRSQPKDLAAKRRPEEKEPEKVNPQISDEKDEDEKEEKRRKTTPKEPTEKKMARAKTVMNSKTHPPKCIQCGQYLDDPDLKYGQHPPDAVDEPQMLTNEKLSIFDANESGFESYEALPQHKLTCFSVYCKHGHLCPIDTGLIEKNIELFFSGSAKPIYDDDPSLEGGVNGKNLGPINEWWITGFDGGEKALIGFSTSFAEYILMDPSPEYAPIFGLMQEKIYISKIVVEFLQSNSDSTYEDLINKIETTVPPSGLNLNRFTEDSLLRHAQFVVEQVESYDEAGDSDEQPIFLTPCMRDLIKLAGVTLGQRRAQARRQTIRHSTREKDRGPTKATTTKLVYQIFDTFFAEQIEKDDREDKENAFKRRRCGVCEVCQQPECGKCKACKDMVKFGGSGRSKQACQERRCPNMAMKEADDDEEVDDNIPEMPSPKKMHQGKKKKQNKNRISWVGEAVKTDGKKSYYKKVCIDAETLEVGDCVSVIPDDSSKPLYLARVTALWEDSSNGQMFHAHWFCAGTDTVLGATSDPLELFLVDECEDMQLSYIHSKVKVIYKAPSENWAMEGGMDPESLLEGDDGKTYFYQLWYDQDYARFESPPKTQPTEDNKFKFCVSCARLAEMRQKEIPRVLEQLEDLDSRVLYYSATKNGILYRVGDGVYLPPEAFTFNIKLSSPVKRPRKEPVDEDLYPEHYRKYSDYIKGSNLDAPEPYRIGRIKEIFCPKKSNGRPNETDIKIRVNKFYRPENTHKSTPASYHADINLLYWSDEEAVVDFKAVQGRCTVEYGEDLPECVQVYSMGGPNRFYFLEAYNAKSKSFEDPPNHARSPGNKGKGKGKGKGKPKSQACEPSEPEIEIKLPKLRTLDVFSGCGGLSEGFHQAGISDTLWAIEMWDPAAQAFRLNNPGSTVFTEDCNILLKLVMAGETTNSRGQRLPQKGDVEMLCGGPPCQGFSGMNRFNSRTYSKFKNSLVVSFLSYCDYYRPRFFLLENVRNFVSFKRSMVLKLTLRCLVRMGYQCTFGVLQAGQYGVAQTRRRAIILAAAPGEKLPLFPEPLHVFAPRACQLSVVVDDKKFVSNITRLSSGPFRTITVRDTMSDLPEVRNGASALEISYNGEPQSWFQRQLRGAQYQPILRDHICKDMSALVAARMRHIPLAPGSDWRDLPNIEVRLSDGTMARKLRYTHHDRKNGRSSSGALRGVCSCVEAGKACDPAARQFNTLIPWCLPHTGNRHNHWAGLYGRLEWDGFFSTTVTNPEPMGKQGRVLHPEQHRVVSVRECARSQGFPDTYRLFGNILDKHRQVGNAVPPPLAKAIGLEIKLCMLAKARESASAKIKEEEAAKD
Method: His-DNMT1 (182 kDa, human) was cloned, expressed and purified as described (Halby et al. Chem Bio Chem 2012, 13, 157-165). The reaction was performed in a 10 μL total reaction volume in low volume NBS™ 384-well microplates (Corning), containing the tested compound (up to 1% DMSO), 1 μM of a SAM/[methyl-^3H] SAM (3TBq/mmol, PerkinElmer) mix in a ratio of 3-to-1 (isotopic dilution 1*:3), 0.3 μM of biotinylated hemimethylated DNA duplex (5′-GATmCGCmCGATGmCGmCGAATmCGmCGATmCGATGmCGAT-3′ and BIOT-5′-[…]-3′), and 90 nM of DNMT1 in methylation buffer (20 mM HEPES pH 7.2, 1 mM EDTA, 50 mM KCl, 25 μg/mL BSA). The reaction was incubated at 37° C. for 2 hours. 8 μL are then transferred into a streptavidin 96-well scintillant coated Flashplate™ (PerkinElmer) containing 190 μL of 20 μM SAH in 50 mM Tris-HCl pH 7.4. The Flashplate™ was agitated at room temperature for 1 hour and read in 200 μL of 50 mM Tris-HCl pH 7.4 on TopCount NXT (PerkinElmer). The percentage of inhibition is reported. The formula used to calculate the percentage of inhibition is [(X−Y)/X]×100, where X is the signal determined in the absence of the inhibitor and Y is the signal obtained in the presence of the inhibitor.

[2] = test system: luciferase reporter gene under control of methylated CMV promoter in KG-1 cells; assay: CMV-luc reexpression in KG-1 cells; format: cell-based, human; conditions: for Induction Fold (IF) of luciferase gene reporter in KG-1 CMV-Luc: 24 h, vs DMSO; for IF-24 h, KG1 CMV-Luc model: at 5 μM, 24 h (Table 5)
Method: KG-1 cells were stably transfected with the firefly luciferase reporter gene (luc+ from pGL3; Promega) under the control of the cytomegalovirus (CMV) promoter (from pEGFP-N1; Clontech Laboratories Inc.) partially methylated (50%). 20,000 cells per well were seeded in a 96-well plate. After 24 h incubation in the presence of the test compound or solvant (DMSO), the induction of the promoter was measured by quantification of the luciferase signal with the Brite-lite assay system (PerkinElmer) according to the manufacturer's protocol. The luminescence was measured on an EnVision multilabel plate reader (PerkinElmer), and the data are expressed as the fold induction as compared with the DMSO control. The mean of three experiments and the standard error is reported.

[3] = target: T2, human C-terminal DNMT3A (623-908a.a.) (Homo sapiens, UniProt Q9Y6K1); assay: hDNMT3A assay (restriction-based fluorescence assay); format: biochemical; conditions: for inhibition at 10 µM: read-out: hDNMT 3A inhibition, Inhibition (%) 10 μM; for inhibition at 32 µM: read-out: hDNMT 3A inhibition, Inhibition (%) 32 μM
T2 construct: The human C-terminal DNMT3A (623-908a.a.); made in house
T2 sequence (Q9Y6K1 627-912 limits assumed): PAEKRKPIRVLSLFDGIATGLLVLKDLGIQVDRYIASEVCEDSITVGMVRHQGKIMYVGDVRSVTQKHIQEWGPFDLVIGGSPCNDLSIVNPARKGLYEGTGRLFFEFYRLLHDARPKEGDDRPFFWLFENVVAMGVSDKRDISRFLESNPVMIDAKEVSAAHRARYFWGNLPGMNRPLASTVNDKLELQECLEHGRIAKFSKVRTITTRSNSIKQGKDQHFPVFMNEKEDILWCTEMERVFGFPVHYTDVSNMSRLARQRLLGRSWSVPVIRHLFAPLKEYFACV
Source text: hDNMT3A enzyme inhibition was adapted from the restriction-based fluorescence assay protocol as described in the literature (Ceccaldi et al. Chem Bio Chem 2011, 12, 1337-1345). Briefly, a 5′-labelled biotin oligonucleotide is hybridized to its complementary strand labelled with 6-carboxyfluorescein at the 3′-end into a 384 well microplate (black Optiplates; Perkin Elmer) pre-coated with avidin. The duplex contains a unique CpG site overlapping with a restriction site of a methylation sensitive restriction enzyme. The human C-terminal DNMT3A (623-908a.a.), produced as described in (Gros et al. Nucl. Acids Res. 2013, 41(19):e185), was added in each well (200 ng/well) and mixed with the chemical compounds at desired concentrations and freshly prepared SAM (20 μM final concentration) to start the reaction in a total volume of 50 μL. After 1 hour incubation at 37° C. each well were washed three times with PBS, Tween-20 0.05%, NaCl (500 mM) and three more times with PBST. Specific fluorescent signals were detected with the methylation-sensitive restriction enzyme HpyCH4IV (NEB) as described and measured on a Perkin Elmer Envision detector. The percentage of inhibition is reported. The formula used to calculate the percentage of inhibition is [(X−Y)/X]×100, where X is the signal determined in the absence of the inhibitor and Y is the signal obtained in the presence of the inhibitor. The concentration at which 50% of efficacy of inhibition is observed (EC50) was determined by analysis of a concentration range of the tested compound in triplicates. The non-linear regression fittings with sigmoidal dose-response (variable slope) were performed with GraphPad Prism 4.03 (GraphPad Software).

KG-1 (leukemia) = assay: Anti-proliferative activity (ATPLite); format: cell-based; conditions: Homo sapiens; daily treatment, cell viability by ATPLite; read-out: Antiproliferative activity: IC50 (μM) KG-1 (leukemia)
Method: (§1) To measure the anti-proliferative properties of tested molecules, 2×10^4 cells are seeded at day 0 in a 96 wells plate. The compounds to be tested, stored at −20° C. as 10^−2 M stock solution in 100% DMSO, are freshly diluted on day 1 in the cell medium, before adding a dose range of 3.2 nM to 10 μM to the cells. Cells are treated everyday and cell viability assessed after 3 days or 7 days of treatment. The cell viability is assessed using the ATPLite kit from Perkin (ATPlite 1 Step Luminescence Assay System, ref 3016739), following the provider instructions. The raw data are analyzed with GraphPad Prism software (v4.03) to generate IC50 values corresponding to the compound concentrations giving 50% reduction in cell viability. The values presented are the mean results of at least two independent experiments. The standard errors are indicated.

[4] = test system: HCT116 (colorectal cancer); assay: Anti-proliferative activity (ATPLite); format: cell-based; conditions: Homo sapiens, HCT-116; daily treatment, cell viability by ATPLite; read-out: Antiproliferative activity: IC50 (μM) HCT116 (colorectal cancer)
Method: as §1

[5] = concentration at which 50% of efficacy of inhibition is observed, read-out: EC50 (μM), hDNMT 3A inhibition
[6] = interval line below the EC50 of the same compound, read-out: EC50 (μM), range given

| SMILES | EC50 [1] [µM] | inhibition at 10 µM [1] [%] | inhibition at 32 µM [1] [%] | Induction Fold (IF) of luciferase gene reporter in KG-1 CMV-Luc ([2]; 0.1 μM) | Induction Fold (IF) of luciferase gene reporter in KG-1 CMV-Luc ([2]; 0.32 μM) | Induction Fold (IF) of luciferase gene reporter in KG-1 CMV-Luc ([2]; 1 μM) | Induction Fold (IF) of luciferase gene reporter in KG-1 CMV-Luc ([2]; 3.2 μM) | Induction Fold (IF) of luciferase gene reporter in KG-1 CMV-Luc ([2]; 5 μM) | IF-24 h, KG1 CMV-Luc model [2] | EC50 [3, 5] [µM] | EC50 [3, 6] [µM] | inhibition at 10 µM [3] [%] | inhibition at 32 µM [3] [%] | IC50 (KG-1 (leukemia)) [µM] | IC50 [4] [µM] | Induction Fold (IF) of luciferase gene reporter in KG-1 CMV-Luc ([2]; 10 μM) |
| --- | --- | --- | --- | --- | --- | --- | --- | --- | --- | --- | --- | --- | --- | --- | --- | --- |
| CCN(CC)CCCNC(=S)N1CCc2cc3c4cc2[C@@H]1Cc1ccc(OC)c(c1)Oc1ccc(cc1)C[C@H]1c2c(cc(OC)c(c2O4)O3)CCN1C [Product 42] | 10.6 ± 2.8 | 38 | 100 | 1.2 ± 0.1 | 1.3 ± 0.1 | 1.5 ± 0.1 | 2.0 ± 0.2 | 2.3 ± 0.1 | 1.1 ± 0.6 | 0.64 | 0.47 to 0.86 | 98 | 98 | 3.57 ± 0.04 | 0.5 ± 0.01 | – |
| CCN(CC)CCCNC(=O)N1CCc2cc3c4cc2[C@@H]1Cc1ccc(OC)c(c1)Oc1ccc(cc1)C[C@H]1c2c(cc(OC)c(c2O4)O3)CCN1C(=O)NCCCN(CC)CC [Product 48] | 14.6 ± 1.3 | 32 | 98 | 1.1 ± 0.1 | 1.2 ± 0.3 | 1.2 ± 0.1 | 1.2 ± 0.1 | 1.3 ± 0.1 | 1.1 | 1.93 | 1 to 3.72 | 82 | 98 | – | – | 2.3 ± 1.3 |
